Data from PubChem BioAssay AID1963831 (Molecular Pharmacology Branch, DTP, NCI, 2024).
pIC50: −log10 of the molar value.

Tested on: 889142-216-R-J1-PDC complex spheroid viability
Test: Anticancer human tumor 889142-216-R-J1-PDC patient-derived bladder carcinoma cell line growth inhibition [POLQ]
Conditions: for pIC50: curve of first compound; for viability, T/C: stronger effect = lower value
Method in brief: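 Growth inhibition in 3D: complex spheroids (tumor PDC, HUVEC, MSC) treated with POLQ inhibitor combinations; where Cmax unknown, highest tested concentration 10 microM, except SN-38 at 1 microM.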

[1] = second compound 0.0316 µM, first compound 0.0316 µM
[2] = second compound 0.0316 µM, first compound 0.1 µM
[3] = second compound 0.0316 µM, first compound 0.316 µM
[4] = second compound 0.0316 µM, first compound 1 µM
[5] = second compound 0.0316 µM, first compound 3.16 µM
[6] = second compound 0.0316 µM, first compound 10 µM
[7] = second compound 0.1 µM, first compound 0.0316 µM
[8] = second compound 0.1 µM, first compound 0.1 µM
[9] = second compound 0.1 µM, first compound 0.316 µM
[10] = second compound 0.1 µM, first compound 1 µM
[11] = second compound 0.1 µM, first compound 3.16 µM
[12] = second compound 0.1 µM, first compound 10 µM
[13] = second compound 0.316 µM, first compound 0.0316 µM
[14] = second compound 0.316 µM, first compound 0.1 µM
[15] = second compound 0.316 µM, first compound 0.316 µM
[16] = second compound 0.316 µM, first compound 1 µM
[17] = second compound 0.316 µM, first compound 3.16 µM
[18] = second compound 0.316 µM, first compound 10 µM
[19] = second compound 1 µM, first compound 0.0316 µM
[20] = second compound 1 µM, first compound 0.1 µM
[21] = second compound 1 µM, first compound 0.316 µM
[22] = second compound 1 µM, first compound 1 µM
[23] = second compound 1 µM, first compound 3.16 µM
[24] = second compound 1 µM, first compound 10 µM
[25] = second compound 3.16 µM, first compound 0.0316 µM
[26] = second compound 3.16 µM, first compound 0.1 µM
[27] = second compound 3.16 µM, first compound 0.316 µM
[28] = second compound 3.16 µM, first compound 1 µM
[29] = second compound 3.16 µM, first compound 3.16 µM
[30] = second compound 3.16 µM, first compound 10 µM
[31] = second compound 10 µM, first compound 0.0316 µM
[32] = second compound 10 µM, first compound 0.1 µM
[33] = second compound 10 µM, first compound 0.316 µM
[34] = second compound 10 µM, first compound 1 µM
[35] = second compound 10 µM, first compound 3.16 µM
[36] = second compound 10 µM, first compound 10 µM
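Also: spheroids exposed to compounds for seven days.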
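For viability, T/C in this document: 100% = DMSO vehicle control viability.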

SMILES: C=CC(=O)N1CCN(c2nc(=O)n(-c3c(C)ccnc3C(C)C)c3nc(-c4c(O)cccc4F)c(F)cc23)C(C)C1 (stereo not drawn) + COC1C(OC(N)=O)C(O)C(Oc2ccc3c(O)c(NC(=O)c4ccc(O)c(CC=C(C)C)c4)c(=O)oc3c2C)OC1(C)C
- pIC50 (second compound 0.0316 µM): < 5.00
- pIC50 (second compound 0.1 µM): < 5.00
- pIC50 (second compound 0.316 µM): < 5.00
- pIC50 (second compound 1 µM): < 5.00
- pIC50 (second compound 3.16 µM): < 5.00
- pIC50 (second compound 10 µM): < 5.00
- viability, T/C [1]: 111%
- viability, T/C [2]: 114%
- viability, T/C [3]: 121%
- viability, T/C [4]: 111%
- viability, T/C [5]: 131%
- viability, T/C [6]: 88.7%
- viability, T/C [7]: 113%
- viability, T/C [8]: 116%
- viability, T/C [9]: 116%
- viability, T/C [10]: 146%
- viability, T/C [11]: 127%
- viability, T/C [12]: 82.4%
- viability, T/C [13]: 111%
- viability, T/C [14]: 133%
- viability, T/C [15]: 103%
- viability, T/C [16]: 125%
- viability, T/C [17]: 135%
- viability, T/C [18]: 78%
- viability, T/C [19]: 97.3%
- viability, T/C [20]: 123%
- viability, T/C [21]: 126%
- viability, T/C [22]: 109%
- viability, T/C [23]: 112%
- viability, T/C [24]: 103%
- viability, T/C [25]: 98.3%
- viability, T/C [26]: 124%
- viability, T/C [27]: 115%
- viability, T/C [28]: 132%
- viability, T/C [29]: 123%
- viability, T/C [30]: 82.7%
- viability, T/C [31]: 115%
- viability, T/C [32]: 102%
- viability, T/C [33]: 112%
- viability, T/C [34]: 113%
- viability, T/C [35]: 145%
- viability, T/C [36]: 85.3%

SMILES: COc1cccc(OCCCN)c1-c1cc(Nc2cnc(C#N)cn2)n[nH]1 + Nc1ccc(C#CCN(C(=O)Cc2ncc(C(F)(F)F)cc2C(F)(F)F)c2ccc(F)cc2)nn1
- pIC50 (second compound 0.0316 µM): 6.87
- pIC50 (second compound 0.1 µM): 6.79
- pIC50 (second compound 0.316 µM): 7.03
- pIC50 (second compound 1 µM): 7.48
- pIC50 (second compound 3.16 µM): 7.53
- pIC50 (second compound 10 µM): < 6.00
- viability, T/C (second compound 0.0316 µM, first compound 0.00316 µM): 100%
- viability, T/C (second compound 0.0316 µM, first compound 0.01 µM): 77.4%
- viability, T/C [1]: 60.2%
- viability, T/C [2]: 45.8%
- viability, T/C [3]: 51%
- viability, T/C [4]: 49%
- viability, T/C (second compound 0.1 µM, first compound 0.00316 µM): 98.5%
- viability, T/C (second compound 0.1 µM, first compound 0.01 µM): 75.1%
- viability, T/C [7]: 57.9%
- viability, T/C [8]: 54.6%
- viability, T/C [9]: 45.8%
- viability, T/C [10]: 46.2%
- viability, T/C (second compound 0.316 µM, first compound 0.00316 µM): 99.6%
- viability, T/C (second compound 0.316 µM, first compound 0.01 µM): 71.8%
- viability, T/C [13]: 49.9%
- viability, T/C [14]: 49.9%
- viability, T/C [15]: 56.8%
- viability, T/C [16]: 43.6%
- viability, T/C (second compound 1 µM, first compound 0.00316 µM): 79.1%
- viability, T/C (second compound 1 µM, first compound 0.01 µM): 68%
- viability, T/C [19]: 50%
- viability, T/C [20]: 44.5%
- viability, T/C [21]: 49%
- viability, T/C [22]: 39.5%
- viability, T/C (second compound 3.16 µM, first compound 0.00316 µM): 76.8%
- viability, T/C (second compound 3.16 µM, first compound 0.01 µM): 76.7%
- viability, T/C [25]: 47.7%
- viability, T/C [26]: 48.9%
- viability, T/C [27]: 54%
- viability, T/C [28]: 41.9%
- viability, T/C (second compound 10 µM, first compound 0.00316 µM): 85.8%
- viability, T/C (second compound 10 µM, first compound 0.01 µM): 70.6%
- viability, T/C [31]: 55.8%
- viability, T/C [32]: 51.8%
- viability, T/C [33]: 61%
- viability, T/C [34]: 45.6%

SMILES: Nc1ccn(C2OC(CO)C(O)C2(F)F)c(=O)n1 (stereo not drawn) + Cc1cccc(N(C)C(=O)C2C(O)CCN2c2nc(C)cc(C(F)(F)F)c2C#N)c1
- pIC50 (second compound 0.0316 µM): 6.75
- pIC50 (second compound 0.1 µM): 6.86
- pIC50 (second compound 0.316 µM): 6.85
- pIC50 (second compound 1 µM): 6.48
- pIC50 (second compound 3.16 µM): 6.67
- pIC50 (second compound 10 µM): 7.00
- viability, T/C [1]: 67.7%
- viability, T/C [2]: 49.5%
- viability, T/C [3]: 48.8%
- viability, T/C [4]: 40.5%
- viability, T/C [5]: 40.4%
- viability, T/C [6]: 31.4%
- viability, T/C [7]: 59%
- viability, T/C [8]: 53.9%
- viability, T/C [9]: 44.5%
- viability, T/C [10]: 39.1%
- viability, T/C [11]: 44%
- viability, T/C [12]: 36.3%
- viability, T/C [13]: 55.6%
- viability, T/C [14]: 50.4%
- viability, T/C [15]: 46%
- viability, T/C [16]: 45%
- viability, T/C [17]: 39.1%
- viability, T/C [18]: 34%
- viability, T/C [19]: 58.3%
- viability, T/C [20]: 57.9%
- viability, T/C [21]: 49.2%
- viability, T/C [22]: 43.9%
- viability, T/C [23]: 38.7%
- viability, T/C [24]: 32.5%
- viability, T/C [25]: 54.7%
- viability, T/C [26]: 54.7%
- viability, T/C [27]: 47.7%
- viability, T/C [28]: 43.7%
- viability, T/C [29]: 37.5%
- viability, T/C [30]: 31.7%
- viability, T/C [31]: 69.2%
- viability, T/C [32]: 49%
- viability, T/C [33]: 43.9%
- viability, T/C [34]: 43.8%
- viability, T/C [35]: 46.6%
- viability, T/C [36]: 34%

SMILES: Nc1ccn(C2OC(CO)C(O)C2(F)F)c(=O)n1 (stereo not drawn) + COC1C(OC(N)=O)C(O)C(Oc2ccc3c(O)c(NC(=O)c4ccc(O)c(CC=C(C)C)c4)c(=O)oc3c2C)OC1(C)C
- pIC50 (second compound 0.0316 µM): 6.08
- pIC50 (second compound 0.1 µM): 6.65
- pIC50 (second compound 0.316 µM): 6.69
- pIC50 (second compound 1 µM): 6.60
- pIC50 (second compound 3.16 µM): 6.74
- pIC50 (second compound 10 µM): 6.27
- viability, T/C [1]: 60.8%
- viability, T/C [2]: 49.5%
- viability, T/C [3]: 51.2%
- viability, T/C [4]: 49.7%
- viability, T/C [5]: 43.4%
- viability, T/C [6]: 27.4%
- viability, T/C [7]: 78.2%
- viability, T/C [8]: 60%
- viability, T/C [9]: 41%
- viability, T/C [10]: 43.5%
- viability, T/C [11]: 42.4%
- viability, T/C [12]: 28.4%
- viability, T/C [13]: 68.4%
- viability, T/C [14]: 56.6%
- viability, T/C [15]: 44.5%
- viability, T/C [16]: 38.9%
- viability, T/C [17]: 43.5%
- viability, T/C [18]: 31.8%
- viability, T/C [19]: 64.5%
- viability, T/C [20]: 58.3%
- viability, T/C [21]: 45.5%
- viability, T/C [22]: 42.1%
- viability, T/C [23]: 37.6%
- viability, T/C [24]: 30.3%
- viability, T/C [25]: 64.5%
- viability, T/C [26]: 52.4%
- viability, T/C [27]: 43.7%
- viability, T/C [28]: 43.7%
- viability, T/C [29]: 38.1%
- viability, T/C [30]: 31.4%
- viability, T/C [31]: 72.5%
- viability, T/C [32]: 60.2%
- viability, T/C [33]: 52.7%
- viability, T/C [34]: 45.3%
- viability, T/C [35]: 42.6%
- viability, T/C [36]: 30.5%
